Experimental data from ChEMBL document CHEMBL1201862, “PubChem BioAssay data set” (2004).
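A five-concentration, 48-hour dose response in 96-well plates underlies each endpoint, interpolated linearly between surrounding concentrations. GI50 = concentration required for 50% inhibition of growth.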 Active and inactive are the calls of the source. No stated cut-off is given here; in the data, active = GI50 up to about 1.1 µM and inactive = higher.

Tests used:
Experiment in all cases: NCI-60 cell line screen, 48 h
IGROV-1 = tested on: IGROV-1
SK-MEL-28 = tested on: SK-MEL-28
SW-620 = tested on: SW-620
Malme-3M = tested on: Malme-3M
COLO 205 = tested on: COLO 205
SF-295 = tested on: SF-295
CCRF-CEM = tested on: CCRF-CEM
HCT-116 = tested on: HCT-116
SNB-75 = tested on: SNB-75
HCC 2998 = tested on: HCC 2998
T47D = tested on: T47D
OVCAR-5 = tested on: OVCAR-5
RXF 393 = tested on: RXF 393
BT-549 = tested on: BT-549
EKVX = tested on: EKVX
NCI/ADR-RES = tested on: NCI/ADR-RES
ACHN = tested on: ACHN
A549 = tested on: A549
HL-60 = tested on: HL-60
PC-3 = tested on: PC-3

SMILES	GI50 (IGROV-1)	GI50 (SK-MEL-28)	GI50 (SW-620)	GI50 (Malme-3M)	GI50 (COLO 205)	GI50 (SF-295)	GI50 (CCRF-CEM)	GI50 (HCT-116)	GI50 (SNB-75)	GI50 (HCC 2998)	GI50 (T47D)	GI50 (OVCAR-5)	GI50 (RXF 393)	GI50 (BT-549)	GI50 (EKVX)	GI50 (NCI/ADR-RES)	GI50 (ACHN)	GI50 (A549)	GI50 (HL-60)	GI50 (PC-3)
Sc1nc(S)nc(Oc2ccc(Cl)c(Cl)c2)n1	> 56.1 µM (inactive)	> 54 µM (inactive)	> 61.4 µM (inactive)	> 47.2 µM (inactive)	> 42.3 µM (inactive)	59 µM (inactive)	23.2 µM (inactive)	30.6 µM (inactive)	30.3 µM (inactive)	17.8 µM (inactive)	24.4 µM (inactive)	59.2 µM (inactive)	< 0.01 µM (active)	57.8 µM (inactive)	42.1 µM (inactive)	38 µM (inactive)	48.3 µM (inactive)	22.4 µM (inactive)	40 µM (inactive)	–
COc1ccc(-c2cc(O)c3cc(OC)c(OC)cc3n2)cc1OC	> 100 µM (inactive)	> 100 µM (inactive)	> 100 µM (inactive)	> 100 µM (inactive)	> 100 µM (inactive)	> 100 µM (inactive)	> 100 µM (inactive)	> 100 µM (inactive)	37.2 µM (inactive)	> 100 µM (inactive)	–	> 100 µM (inactive)	67.3 µM (inactive)	> 100 µM (inactive)	> 100 µM (inactive)	> 100 µM (inactive)	> 100 µM (inactive)	> 100 µM (inactive)	–	> 100 µM (inactive)
CC(CC(=O)O)(CC(=O)O)C(=O)O	> 100 µM (inactive)	> 100 µM (inactive)	> 100 µM (inactive)	> 100 µM (inactive)	> 100 µM (inactive)	> 100 µM (inactive)	–	> 100 µM (inactive)	> 100 µM (inactive)	> 100 µM (inactive)	> 100 µM (inactive)	> 100 µM (inactive)	> 100 µM (inactive)	> 100 µM (inactive)	> 100 µM (inactive)	> 100 µM (inactive)	> 100 µM (inactive)	> 100 µM (inactive)	–	> 100 µM (inactive)
COC(=O)C(C(=O)C(=O)Nc1c(C)cccc1C(C)(C)C)c1nc2ccc(Cl)cc2nc1O (stereo not drawn)	25.8 µM (inactive)	> 100 µM (inactive)	> 100 µM (inactive)	> 100 µM (inactive)	–	> 100 µM (inactive)	> 100 µM (inactive)	> 100 µM (inactive)	> 100 µM (inactive)	> 100 µM (inactive)	> 100 µM (inactive)	> 100 µM (inactive)	> 100 µM (inactive)	> 100 µM (inactive)	49.8 µM (inactive)	> 100 µM (inactive)	> 100 µM (inactive)	> 100 µM (inactive)	–	> 100 µM (inactive)
C#CC(O)Cc1ccc(OC)c2occc12 (stereo not drawn)	> 100 µM (inactive)	–	> 100 µM (inactive)	> 100 µM (inactive)	> 100 µM (inactive)	> 100 µM (inactive)	–	> 100 µM (inactive)	52.1 µM (inactive)	> 100 µM (inactive)	> 100 µM (inactive)	> 100 µM (inactive)	> 100 µM (inactive)	> 100 µM (inactive)	69.3 µM (inactive)	> 100 µM (inactive)	> 100 µM (inactive)	> 100 µM (inactive)	–	> 100 µM (inactive)
O=C(O)C12CC3(C(=O)O)CC(C(=O)O)(CC(C(=O)O)(C1)C3=O)C2=O	> 100 µM (inactive)	> 100 µM (inactive)	> 100 µM (inactive)	> 100 µM (inactive)	> 100 µM (inactive)	> 100 µM (inactive)	> 100 µM (inactive)	> 100 µM (inactive)	> 100 µM (inactive)	–	> 100 µM (inactive)	> 100 µM (inactive)	> 100 µM (inactive)	> 100 µM (inactive)	> 100 µM (inactive)	> 100 µM (inactive)	> 100 µM (inactive)	> 100 µM (inactive)	–	> 100 µM (inactive)
C=C1C(=O)O[C@H]2C[C@@]3(COC(C)=O)C=COC=C(COC(=O)C(C)C)C3CC12 (stereo partly drawn)	> 100 µM (inactive)	> 100 µM (inactive)	46.1 µM (inactive)	> 100 µM (inactive)	61.1 µM (inactive)	> 100 µM (inactive)	24 µM (inactive)	37.5 µM (inactive)	12.2 µM (inactive)	51.4 µM (inactive)	–	> 100 µM (inactive)	67.6 µM (inactive)	> 100 µM (inactive)	> 100 µM (inactive)	> 100 µM (inactive)	> 100 µM (inactive)	> 100 µM (inactive)	23.8 µM (inactive)	35.3 µM (inactive)
CC(=O)C(C(=N)C#N)C(=O)Nc1ccccc1 (stereo not drawn)	> 100 µM (inactive)	> 100 µM (inactive)	> 100 µM (inactive)	> 100 µM (inactive)	> 100 µM (inactive)	> 100 µM (inactive)	> 100 µM (inactive)	> 100 µM (inactive)	> 100 µM (inactive)	–	> 100 µM (inactive)	> 100 µM (inactive)	> 100 µM (inactive)	> 100 µM (inactive)	> 100 µM (inactive)	> 100 µM (inactive)	> 100 µM (inactive)	> 100 µM (inactive)	–	> 100 µM (inactive)
CN1CCN(CCCN2c3ccccc3Sc3ccc(C(F)(F)F)cc32)CC1	–	1.66 µM (inactive)	–	1.45 µM (inactive)	–	5.79 µM (inactive)	–	4.25 µM (inactive)	4.31 µM (inactive)	–	6.1 µM (inactive)	11.2 µM (inactive)	–	12.1 µM (inactive)	10.6 µM (inactive)	8.22 µM (inactive)	10.7 µM (inactive)	10.2 µM (inactive)	4.58 µM (inactive)	4.58 µM (inactive)
COc1ccc(/C=C2/SC(c3ccc(Cl)cc3)N(NC(=O)CCCCCCCCC(=O)NN3C(=O)/C(=C\c4ccc(OC)c(OC)c4)SC3c3ccc(Cl)cc3)C2=O)cc1OC (stereo not drawn)	12.9 µM (inactive)	83 µM (inactive)	> 100 µM (inactive)	–	> 100 µM (inactive)	21.4 µM (inactive)	–	30.6 µM (inactive)	> 100 µM (inactive)	> 100 µM (inactive)	> 100 µM (inactive)	87.1 µM (inactive)	28 µM (inactive)	> 100 µM (inactive)	23.6 µM (inactive)	> 100 µM (inactive)	65.2 µM (inactive)	64.3 µM (inactive)	–	54.1 µM (inactive)
C=C(C)COC1CCCCO1 (stereo not drawn)	> 100 µM (inactive)	> 100 µM (inactive)	> 100 µM (inactive)	> 100 µM (inactive)	> 100 µM (inactive)	> 100 µM (inactive)	> 100 µM (inactive)	> 100 µM (inactive)	> 100 µM (inactive)	> 100 µM (inactive)	> 100 µM (inactive)	> 100 µM (inactive)	–	> 100 µM (inactive)	> 100 µM (inactive)	> 100 µM (inactive)	> 100 µM (inactive)	> 100 µM (inactive)	> 100 µM (inactive)	> 100 µM (inactive)
Cn1ccc(C(=O)NCCOCCNC(=O)c2ccn(C)c(=O)c2O)c(O)c1=O	–	> 100 µM (inactive)	> 100 µM (inactive)	> 100 µM (inactive)	> 100 µM (inactive)	–	–	> 100 µM (inactive)	–	> 100 µM (inactive)	> 100 µM (inactive)	–	–	> 100 µM (inactive)	–	> 100 µM (inactive)	> 100 µM (inactive)	> 100 µM (inactive)	–	> 100 µM (inactive)
CC(=O)OC(Cc1c(O)c2c(C)cccc2oc1=O)C(C)(C)O (stereo not drawn)	> 100 µM (inactive)	88.1 µM (inactive)	> 100 µM (inactive)	> 100 µM (inactive)	> 100 µM (inactive)	> 100 µM (inactive)	88.5 µM (inactive)	53.6 µM (inactive)	76 µM (inactive)	> 100 µM (inactive)	60.4 µM (inactive)	> 100 µM (inactive)	–	> 100 µM (inactive)	> 100 µM (inactive)	92.3 µM (inactive)	> 100 µM (inactive)	> 100 µM (inactive)	72.6 µM (inactive)	51.4 µM (inactive)
COc1ccccc1Nc1nc(NNC(=O)Cc2ccccc2)nc(NNC(=O)c2ccncc2)n1	> 10 µM (inactive)	> 10 µM (inactive)	> 10 µM (inactive)	> 10 µM (inactive)	> 10 µM (inactive)	–	> 10 µM (inactive)	–	> 10 µM (inactive)	> 10 µM (inactive)	> 10 µM (inactive)	–	–	> 10 µM (inactive)	> 10 µM (inactive)	> 10 µM (inactive)	–	> 10 µM (inactive)	> 10 µM (inactive)	–
CC1C[C@]2(C)C(=S)Nc3ccccc3[C@@H]2Nc2ccccc21 (stereo partly drawn)	18.3 µM (inactive)	0.39 µM (active)	25.9 µM (inactive)	15.9 µM (inactive)	14.2 µM (inactive)	18.5 µM (inactive)	17.9 µM (inactive)	12.6 µM (inactive)	13.9 µM (inactive)	22.2 µM (inactive)	17.9 µM (inactive)	20.8 µM (inactive)	19 µM (inactive)	–	22.3 µM (inactive)	18.5 µM (inactive)	19.3 µM (inactive)	19.1 µM (inactive)	33.5 µM (inactive)	15.4 µM (inactive)
COc1ccc(NC(=S)N/N=C/c2cccc(C)n2)cc1	2.37 µM (inactive)	5.68 µM (inactive)	2.86 µM (inactive)	3.13 µM (inactive)	2.63 µM (inactive)	4.09 µM (inactive)	2.82 µM (inactive)	3.33 µM (inactive)	4.93 µM (inactive)	8.41 µM (inactive)	3.62 µM (inactive)	31.5 µM (inactive)	–	10.7 µM (inactive)	5.11 µM (inactive)	2.78 µM (inactive)	2.83 µM (inactive)	5.22 µM (inactive)	1.84 µM (inactive)	4.58 µM (inactive)
